Reference: US20260026501A1, “AGROCHEMICAL COMPOSITION OF SDHI FUNGICIDES” (ADAMA MAKHTESHIM LTD., priority 2022, published 2026)

Experiment: Concentration of the actives by HPLC after storage (storage stability)
Format: physicochemical
Description: The assay of the two Ai's was checked by HPLC Method.
The analytical method included: • 1. Preparation of standard solution. • 2. Sample solution preparation: 200 mg sample was measured in triplicates into 50 ml volumetric flask. • 3. Acetonitrile was added. • 4. Injection of the standard and sample solutions in room temperature.
The concentration was calculated by: […]
The samples were checked for assay after 11 days and 14 days at room temperature and at 54° C. The AI % should not decrease more than 5% after the accelerated stability at 54° C.
The samples were checked for assay after 11 days and 14 days at room temperature and at 54° C.
The AI % should not decrease more than 5% after the accelerated stability at 54° C.

[1] = 11 days after EC preparation (54° C.)
[2] = 11 days after EC preparation (r.t)
[3] = 14 days after EC preparation (54° C.)
[4] = 14 days after EC preparation (r.t)

SMILES | Concentration of the active in formulation A [1] | Concentration of the active in formulation A [2] | Concentration of the active in formulation A [3] | Concentration of the active in formulation A [4] | Concentration of the active in formulation B (after 14 days (54° C.)) | Concentration of the active in formulation B (after 14 days (r.t)) | Concentration of the active in formulation A (after EC preparation) | Concentration of the active in formulation B (after EC preparation)
OC(Cc1ccccc1Cl)(Cn1nc[nH]c1=S)C1(Cl)CC1 (racemic) [Prothioconazole, 2-[(2RS)-2-(1-chlorocyclopropyl)-3-(2-chlorophenyl)-2-hydroxypropyl]-2H-1,2,4-triazole-3(4H)-thione] | 14900 µg/mL | 15100 µg/mL | 14700 µg/mL | 14800 µg/mL | 14700 µg/mL | 14500 µg/mL | 15200 µg/mL | 15300 µg/mL
Cn1cc(C(=O)Nc2ccccc2-c2cc(F)c(F)c(F)c2)c(C(F)F)n1 [Fluxapyroxad, 3-(difluoromethyl)-1-methyl-N-(3′,4′,5′-trifluorobiphenyl-2-yl)pyrazole-4-carboxamide] | 7500 µg/mL | 7500 µg/mL | 7500 µg/mL | 7400 µg/mL | 9000 µg/mL | 8800 µg/mL | 7500 µg/mL | 8900 µg/mL
